# Experimental data reported in US20050002879A1, “External skin compositions” (priority 2001, published 2005).
# Experiments:
# Format in all cases: cell-based
# [1] = tested on: Human keratinocytes; assay: Test Example 2: hyaluronic acid production test in human keratinocytes (retinoids with or without NAG); conditions: RA 1 mmol/L, ROH 1 mmol/L, RPal 0.001%, RAce 0.001%, NAG 5 mmol/L; for amount of hyaluronic acid released into the medium: n=3, 24 hours
# Description: (§1) Human keratinocytes (manufactured by Kurabo Industries, Ltd.) were seeded in a 24-well plate, cultured to confluence in a growth medium, and then 5 mmol/L of N-acetylglucosamine, 0.0001% of retinyl palmitate, 0.0001% of retinyl palmitate+5 mmol/L of N-acetylglucosamine, 1.0 mmol/L of retinoic acid, or 1.0 mmol/L of retinoic acid+5 mmol/L of N-acetylglucosamine were added, respectively. 24 hours after the addition, hyaluronic acid released into the medium was determined. The determination of hyaluronic acid was conducted using a commercially available hyaluronic acid determination kit (manufactured by Chugai Diagnostics Science).
# Hyaluronic Acid Production Test to Human Keratinocytes
# In the same manner as in Test Example 1, the test was conducted (n=3). As the test substance, 1 mmol/L of retinoic acid (hereinafter referred to as RA), 1 mmol/L of retinol (hereinafter referred to as ROH), 0.001% of retinyl palmitate (hereinafter referred to as RPal) and 0.001% of retinyl acetate (hereinafter referred to as RAce) were used, and the determination was conducted with respect to the case where 5 mmol/L of N-acetylglucosamine (hereinafter referred to as NAG) and each of the above test substances were simultaneously added. The results are shown below and in FIG. 1.
# [2] = tested on: Human keratinocytes; assay: Test Example 1: hyaluronic acid production test in human normal keratinocytes; conditions: N-acetylglucosamine 5 mmol/L, retinyl palmitate 0.0001%, retinoic acid 1.0 mmol/L; for production of hyaluronic acid increased, times as compared with the no-addition group: 24 hours; for Hyaluronic acid production promotion ratio (% ± S.D.): % of hyaluronic acid in medium without test substance, 24 hours after addition
# Description: Hyaluronic Acid Production Test to Human Normal Keratinocytes)
# as §1
# The effects of test substances were defined as percentage (%) of the amount of hyaluronic acid in a cultured medium without a test substance.
# [3] = tested on: Human keratinocytes; assay: Test Example 3: hyaluronic acid production promotion test in human keratinocytes (â-carotene with or without NAG); conditions: â-carotene 10 mmol/L; for amount of hyaluronic acid: n=3, 24 hours
# Description: as §1
# Hyaluronic Acid Production Promotion Test to Human Keratinocytes)
# In the same manner as in Test Example 1, the test was conducted and the amount of hyaluronic acid was determined (n=3). As the test substance, 10 mmol/L of â-carotene (hereinafter referred to as âCAR), NAG, and NAG+âCAR were used. The results are shown below and in FIG. 2.
smiles,measurement,setting,value
"CC1=C(/C=C/C(C)=C/C=C/C(C)=C/C(=O)O)C(C)(C)CCC1 [retinoic acid, reference compound]","production of hyaluronic acid increased, times as compared with the no-addition group",[1],3.4 times
same,amount of hyaluronic acid released into the medium,[1],0.37 ig/well
same,"production of hyaluronic acid increased, times as compared with the no-addition group",[2],2.5 times
same,Hyaluronic acid production promotion ratio (% ± S.D.),[2],250 ± 20.8%
CCCCCCCCCCCCCCCC(=O)OC/C=C(C)/C=C/C=C(C)/C=C/C1=C(C)CCCC1(C)C [retinyl palmitate],"production of hyaluronic acid increased, times as compared with the no-addition group",[1],2.0 times
same,amount of hyaluronic acid released into the medium,[1],0.22 ig/well
same,"production of hyaluronic acid increased, times as compared with the no-addition group",[2],1.23 times
same,Hyaluronic acid production promotion ratio (% ± S.D.),[2],123 ± 16.4%
CC(=O)N[C@H]1C(O)O[C@H](CO)[C@@H](O)[C@@H]1O (some centres unmarked) [N-acetylglucosamine],amount of hyaluronic acid,[3],0.18 ig/well
same,"production of hyaluronic acid increased, times as compared with the no-addition group",[3],1.3 times
same,"production of hyaluronic acid increased, times as compared with the no-addition group",[1],1.1 times
same,amount of hyaluronic acid released into the medium,[1],0.12 ig/well
same,"production of hyaluronic acid increased, times as compared with the no-addition group",[2],1.55 times
same,Hyaluronic acid production promotion ratio (% ± S.D.),[2],155 ± 11.8%
CC(=O)OC/C=C(C)/C=C/C=C(C)/C=C/C1=C(C)CCCC1(C)C [retinyl acetate],"production of hyaluronic acid increased, times as compared with the no-addition group",[1],1.6 times
same,amount of hyaluronic acid released into the medium,[1],0.18 ig/well
CC1=C(/C=C/C(C)=C/C=C/C(C)=C/CO)C(C)(C)CCC1 [retinol],"production of hyaluronic acid increased, times as compared with the no-addition group",[1],1.4 times
same,amount of hyaluronic acid released into the medium,[1],0.15 ig/well
CC1=CCCC(C)(C)C1/C=C/C(C)=C/C=C/C(C)=C/C=C/C=C(C)/C=C/C=C(C)/C=C/C1=C(C)CCCC1(C)C (centres unmarked) [â-carotene],amount of hyaluronic acid,[3],0.16 ig/well
same,"production of hyaluronic acid increased, times as compared with the no-addition group",[3],1.1 times
